The values below come from ChEMBL document CHEMBL1138749, “N-Phenyl-4-pyrazolo[1,5-b]pyridazin-3-ylpyrimidin-2-amines as potent and selective inhibitors of glycogen synthase kinase 3 with good cellular efficacy” (J Med Chem, 2004).

The target of test [1] is Cyclin-dependent kinase 2 (Homo sapiens, UniProt P24941).
In test [2] the target is Glycogen synthase kinase-3 beta (Homo sapiens, UniProt P49841).
Description: Binding affinity for human glycogen synthase kinase 3 beta
Test [3] has as its target Glycogen synthase kinase-3 beta (Rattus norvegicus, UniProt P18266). Nature of the test: Effective concentration to increase glycogen deposition in rat skeletal muscle L6 myoblast cells. The test is classed as functional, cell-based.

Glycogen synthase kinase-3 beta (Homo sapiens, UniProt P49841), sequence (P49841 whole entry): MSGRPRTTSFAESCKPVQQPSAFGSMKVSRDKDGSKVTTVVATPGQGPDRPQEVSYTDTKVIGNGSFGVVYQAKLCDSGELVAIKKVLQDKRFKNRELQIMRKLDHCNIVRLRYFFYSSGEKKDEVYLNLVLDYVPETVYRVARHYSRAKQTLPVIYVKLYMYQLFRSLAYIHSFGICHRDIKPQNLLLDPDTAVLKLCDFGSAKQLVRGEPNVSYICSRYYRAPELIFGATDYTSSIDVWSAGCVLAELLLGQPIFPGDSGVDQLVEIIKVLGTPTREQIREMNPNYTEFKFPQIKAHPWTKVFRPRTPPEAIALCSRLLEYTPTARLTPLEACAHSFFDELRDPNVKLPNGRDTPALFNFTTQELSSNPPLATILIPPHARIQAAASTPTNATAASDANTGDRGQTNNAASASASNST
Glycogen synthase kinase-3 beta (Rattus norvegicus, UniProt P18266), sequence (P18266 whole entry): as the sequence (P49841 whole entry) above, with V240M, T390P, T392A, A400T, T402A counted along it

Broadly, the IC50 is the concentration that gives 50% inhibition. On to `Cc1ccc2c(-c3ccnc(Nc4ccc5c(c4)OCCO5)n3)c(-c3ccc(F)cc3)nn2n1`, for which the IC50 in test [1] was > 20000 nM; in test [2], 10 nM.
On the same counts, the results for `Oc1ccc2c(-c3ccnc(Nc4cccc(C(F)(F)F)c4)n3)cnn2n1` are 8 nM and 10 nM.
As a reminder, the EC50 is the concentration that produces a half-maximal response. Low values mean an effect from little substance, high ones a need for much substance. For `Clc1cc(Cl)cc(Nc2nccc(-c3cnn4ncccc34)n2)c1`, the IC50 in test [1] was found to be 310 nM. A half-maximal effect in test [3] (EC50) was put at 1000 nM.
Turning to `COc1ccc2c(-c3ccnc(Nc4ccc([N+](=O)[O-])cc4)n3)cnn2n1`, the IC50 in test [1] was 20 nM; in test [2], 70 nM.
`Cc1ccc2c(-c3ccnc(Nc4ccc5c(c4)OCCO5)n3)cnn2n1`: the values for the IC50 in test [1] and in test [2] were 6 nM and 10 nM, respectively.
Compound `FC(F)(F)c1cccc(Nc2nccc(-c3cnn4nc(-c5ccccc5)ccc34)n2)c1` [GW819077X] came in with an IC50 in test [1] of 2500 nM.
Consider `Fc1ccc(-c2nn3ncccc3c2-c2ccnc(Nc3ccccc3)n2)cc1`, for which the IC50 in test [1] was > 20000 nM; in test [2], 20 nM.
Turning to `Fc1ccc(Nc2nccc(-c3c(-c4ccc(C(F)(F)F)cc4)nn4ncccc34)n2)cc1F` [GW828529X], the IC50 was > 20000 nM in test [1] and > 31600 nM in test [2].
Turning to `FC(F)(F)c1cccc(-c2nn3ncccc3c2-c2ccnc(Nc3ccc(Cl)c(C(F)(F)F)c3)n2)c1`, the values for the IC50 in test [1] and in test [2] were > 20000 nM and 1000 nM, respectively.
Turning to `CCC(C)c1ccc(Nc2nccc(-c3cnn4ncccc34)n2)cc1` (configuration not stated), the results for the IC50 in test [1] and in test [2] were 150 nM and 120 nM, respectively.
On the same counts, the results for `Cc1ccc2c(-c3ccnc(Nc4ccc(F)c(F)c4)n3)c(-c3ccc(F)cc3)nn2n1` are > 20000 nM and 10 nM.
The compound `c1ccc(Nc2nccc(-c3c(C4CC4)nn4ncccc34)n2)cc1` displayed an IC50 in test [1] of 3980 nM.
`Cc1ccc2c(-c3ccnc(Nc4ccccc4)n3)c(-c3cccc(C(F)(F)F)c3)nn2n1`: the values for the IC50 in test [1] and in test [2] were > 20000 nM and 790 nM, respectively.
For `Cc1ccc2c(-c3ccnc(Nc4ccc(Cl)c(C(F)(F)F)c4)n3)c(-c3ccccc3)nn2n1` the same measures were > 20000 nM and 100 nM.
As for `Fc1ccc(Nc2nccc(-c3c(-c4cccc(C(F)(F)F)c4)nn4ncccc34)n2)cc1F`, the results for the IC50 in test [1] and in test [2] were > 20000 nM and 310 nM, respectively.
Consider `Clc1ccc(Nc2nccc(-c3cnn4ncccc34)n2)cc1Cl`, for which the IC50 in test [1] was found to be 1 nM; in test [2], 10 nM.
On the same counts, the results for `Cc1ccc2c(-c3ccnc(Nc4cccc(C(F)(F)F)c4)n3)cnn2n1` are 50 nM and < 10 nM.
For `COc1cc(Nc2nccc(-c3cnn4nc(OC)ccc34)n2)cc(C(F)(F)F)c1` the same measures were 790 nM and 190 nM.
Turning to `FC(F)(F)c1cc(Nc2nccc(-c3c(-c4ccccc4)nn4ncccc34)n2)ccc1Cl`, the concentration for half-maximal inhibition (IC50) is > 20000 nM in test [1] and 20 nM in test [2].
Turning to `Fc1ccc(-c2nn3ncccc3c2-c2ccnc(Nc3ccc(F)c(F)c3)n2)cc1`, in test [1], the IC50 was > 20000 nM.
Consider `Fc1ccc(Nc2nccc(-c3c(C4CCCCC4)nn4ncccc34)n2)cc1F`, for which the IC50 in test [1] and in test [2] was > 20000 nM throughout.
Take `COc1cc(Nc2nccc(-c3cnn4nc(C)ccc34)n2)cc(C(F)(F)F)c1`: the IC50 in test [1] is 20 nM; in test [2], 10 nM.
As for `Cc1ccc2c(-c3ccnc(Nc4ccc(C(F)(F)F)cc4)n3)cnn2n1`, the IC50 in test [1] is 190 nM; in test [2], 50 nM.
On to `COc1ccc(-c2nn3ncccc3c2-c2ccnc(Nc3ccc(Cl)c(C(F)(F)F)c3)n2)cc1` [GW829115X], for which the IC50 in test [1] is > 20000 nM.
For `Cc1ccc2c(-c3ccnc(Nc4ccc(Cl)c(C(F)(F)F)c4)n3)c(-c3ccc(F)cc3)nn2n1`, the IC50 was > 20000 nM in test [1] and 50 nM in test [2].
`c1cnn2ncc(-c3ccnc(Nc4ccc5c(c4)OCCCO5)n3)c2c1` had an IC50 in test [1] of 6 nM. This counts as single-digit nanomolar.
`c1ccc(-c2nn3ncccc3c2-c2ccnc(Nc3ccc4c(c3)OCCO4)n2)cc1`: the IC50 in test [1] was > 20000 nM.
Regarding `FC(F)(F)c1cc(Nc2nccc(-c3c(-c4ccc(Cl)cc4)nn4ncccc34)n2)ccc1Cl`, in test [1], the IC50 was > 20000 nM.
As to `CCCOc1ccc2c(-c3ccnc(Nc4cccc(C(F)(F)F)c4)n3)cnn2n1`, the IC50 in test [1] came to 1260 nM; in test [2], 790 nM.
As to `Cc1ccc2c(-c3ccnc(Nc4ccc(Cl)c(C(F)(F)F)c4)n3)c(-c3cccc(C(F)(F)F)c3)nn2n1`, the IC50 in test [1] is > 20000 nM.
Consider `Cc1ccc2c(-c3ccnc(Nc4ccc(F)c(F)c4)n3)c(-c3cccc(C(F)(F)F)c3)nn2n1`, for which the IC50 in test [1] was > 20000 nM.
The compound `FC(F)(F)c1cc(Br)cc(Nc2nccc(-c3cnn4ncccc34)n2)c1` gave an IC50 in test [1] of 10 nM.
On the same count and under the same terms, under `COc1ccc2c(-c3ccnc(Nc4cc(C(F)(F)F)cc(C(F)(F)F)c4)n3)cnn2n1` stands > 20000 nM.
Turning to `Cc1ccc2c(-c3ccnc(Nc4ccc5c(c4)OCCO5)n3)c(-c3ccc(C(F)(F)F)cc3)nn2n1` [GW832467X], the results for the IC50 in test [1] and in test [2] were > 20000 nM and > 31600 nM, respectively.
In test [3], `c1cnn2ncc(-c3ccnc(Nc4ccc5c(c4)OCCO5)n3)c2c1` [GW806290X] showed an EC50 of 800 nM.
For the compound `CC(C)c1ccc(Nc2nccc(-c3cnn4ncccc34)n2)cc1` [GW805758X], the IC50 in test [1] is 10 nM; in test [2], 30 nM.
For `COc1ccc2c(-c3ccnc(Nc4ccc5c(c4)OCCO5)n3)cnn2n1` the same measures were 100 nM and 30 nM.
For `Fc1ccc(Nc2nccc(-c3c(-c4ccc(Cl)cc4)nn4ncccc34)n2)cc1F` the same measures were > 20000 nM and 1000 nM.
For `COc1ccc2c(-c3ccnc(Nc4cccc(C(F)(F)F)c4)n3)cnn2n1`, the IC50 in test [1] is 160 nM; in test [2], 50 nM.
As to `FC(F)(F)c1ccc(-c2nn3ncccc3c2-c2ccnc(Nc3ccc4c(c3)OCCO4)n2)cc1` [GW828525X], the IC50 in test [1] is > 20000 nM; in test [2], > 31600 nM.
In test [1], `N#Cc1ccc(Nc2nccc(-c3cnn4ncccc34)n2)cc1` gave a 50% inhibitory concentration (IC50) of 1 nM.
For the compound `c1ccc(Nc2nccc(-c3c(C4CCCCC4)nn4ncccc34)n2)cc1`, the IC50 in test [1] and in test [2] was > 20000 nM throughout.
On to `COc1ccc(-c2nn3ncccc3c2-c2ccnc(Nc3cccc(C(F)(F)F)c3)n2)cc1` [GW827105X], for which, in test [1], the IC50 was > 20000 nM.
Still for that read-out and setting: next, `c1cnn2ncc(-c3ccnc(Nc4ccc5c(c4)OCO5)n3)c2c1`: 10 nM.
Same read-out and setting: next, `Clc1ccc(-c2nn3ncccc3c2-c2ccnc(Nc3ccccc3)n2)cc1` [GW829055X]: > 20000 nM.
With `Cc1ccc2c(-c3ccnc(Nc4ccccc4)n3)c(-c3ccc(C(F)(F)F)cc3)nn2n1`, the IC50 is > 20000 nM in test [1] and > 31600 nM in test [2].
For the compound `CCOc1ccc2c(-c3ccnc(Nc4cccc(C(F)(F)F)c4)n3)cnn2n1` [GW811761X], the IC50 in test [1] stood at 1990 nM; in test [2], 190 nM.
For the compound `FC(F)(F)c1cccc(-c2nn3ncccc3c2-c2ccnc(Nc3ccccc3)n2)c1`, the figures for the IC50 in test [1] and in test [2] were > 20000 nM and 150 nM, respectively.
As for `O=[N+]([O-])c1ccc(Nc2nccc(-c3cnn4ncccc34)n2)cc1`, in test [1], the IC50 turned out to be 20 nM.
In the case of `Cc1cc(C)cc(Nc2nccc(-c3cnn4ncccc34)n2)c1`, in test [3], the half-maximal effective concentration (EC50) worked out at 1800 nM. That is a single-digit micromolar value.
In the case of `CCOc1ccc2c(-c3ccnc(Nc4cc(OC)cc(C(F)(F)F)c4)n3)cnn2n1` [GW807982X], the IC50 in test [1] is > 20000 nM; in test [2], 3160 nM.
Consider `COc1ccc(-c2nn3ncccc3c2-c2ccnc(Nc3ccccc3)n2)cc1`, for which the IC50 in test [1] is > 20000 nM.
Take `Cc1ccc2c(-c3ccnc(Nc4ccc5c(c4)OCCO5)n3)c(-c3ccccc3)nn2n1`: the half-inhibitory concentration (IC50) is > 20000 nM in test [1] and 30 nM in test [2].
On the same counts, the results for `COc1ccc2c(-c3ccnc(Nc4ccc(C#N)cc4)n3)cnn2n1` are 500 nM and 50 nM.
On to `Clc1ccc(-c2nn3ncccc3c2-c2ccnc(Nc3ccc4c(c3)OCCO4)n2)cc1`, for which the results for the IC50 in test [1] and in test [2] were > 20000 nM and 790 nM, respectively.
As for `Fc1cc(F)cc(Nc2nccc(-c3c(-c4ccccc4)nn4ncccc34)n2)c1`, the IC50 was > 20000 nM in test [1] and 10 nM in test [2].
`Cc1ccc2c(-c3ccnc(Nc4ccc5c(c4)OCCO5)n3)c(-c3cccc(C(F)(F)F)c3)nn2n1`: the values for the IC50 in test [1] and in test [2] were 5000 nM and 150 nM, respectively.
As for `COc1cccc(Nc2nccc(-c3cnn4ncccc34)n2)c1` [PYRAZOLOPYRIDAZINE 1], in test [3], the EC50 turned out to be 1300 nM.
Take `COc1ccc(-c2nn3ncccc3c2-c2ccnc(Nc3ccc(F)c(F)c3)n2)cc1` [GW827396X]: in test [1], the half-maximal inhibitory concentration (IC50) was > 20000 nM.
Consider `c1ccc(Nc2nccc(-c3cnn4ncccc34)n2)cc1`, for which the EC50 in test [3] came to 2900 nM.
Turning to `COc1cccc(Nc2nccc(-c3cnn4nc(OC)ccc34)n2)c1`, the IC50 was determined as 60 nM in test [1] and 100 nM in test [2].
Turning to `COc1cc(Nc2nccc(-c3cnn4nc(OC)ccc34)n2)cc(OC)c1`, the results for the IC50 in test [1] and in test [2] were 190 nM and 120 nM, respectively.
For `c1ccc(-c2ccc3c(-c4ccnc(Nc5ccc6c(c5)OCCO6)n4)cnn3n2)cc1` the same measures were > 20000 nM and 120 nM.
On the same counts, the results for `FC(F)(F)c1ccc(-c2nn3ncccc3c2-c2ccnc(Nc3ccc(Cl)c(C(F)(F)F)c3)n2)cc1` are > 20000 nM and > 31600 nM.
For `Cc1ccc2c(-c3ccnc(Nc4ccccc4)n3)c(-c3ccc(F)cc3)nn2n1` [GW833373X] the same measures were > 20000 nM and 20 nM.
`FC(F)(F)c1ccc(-c2nn3ncccc3c2-c2ccnc(Nc3cccc(C(F)(F)F)c3)n2)cc1`: the IC50 in test [1] was > 20000 nM; in test [2], > 31600 nM.
On the same counts, the results for `COCCOc1cnn2ncc(-c3ccnc(Nc4cccc(OC)c4)n3)c2c1` are > 20000 nM and 80 nM.
With `FC(F)(F)c1cccc(Nc2nccc(-c3c(-c4ccc(Cl)cc4)nn4ncccc34)n2)c1`, in test [1], the half-inhibitory concentration (IC50) is > 20000 nM.
For `Fc1ccc(-c2nn3ncccc3c2-c2ccnc(Nc3ccc(Cl)c(C(F)(F)F)c3)n2)cc1`, the IC50 was > 20000 nM in test [1] and 40 nM in test [2].
In the case of `Fc1ccc(-c2nn3ncccc3c2-c2ccnc(Nc3ccc4c(c3)OCCO4)n2)cc1` [GW827099X], the IC50 in test [1] is > 20000 nM; in test [2] it was 10 nM.
